In ChEMBL document CHEMBL1759838, “Synthesis and SAR of acyclic HCV NS3 protease inhibitors with novel P4-benzoxaborole moieties” (Bioorg Med Chem Lett, 2011):

What was measured:
[1] = test system: Hepatitis C virus; test: Antiviral activity against Hepatitis C virus genotype 1a by cell based assay; type: functional, organism-based, Hepacivirus hominis; details: subtype 1a
[2] = test system: Hepatitis C virus; test: Antiviral activity against Hepatitis C virus genotype 1b by cell based assay; type: functional, organism-based, Hepacivirus hominis
[3] = Inhibition of Hepatitis C virus genotype 1a NS3/4A protease activity using Ac-DE-Dap(QXL520)-EE-Abu-w-[COO]-ASC(5-FAMsp)-NH2 peptide substrate by FRET assay; set-up: species or system Hepatitis C virus subtype 1a
[4] = Absorption in Sprague-Dawley rat at 5 mg/kg, po; type: ADME, organism-based; set-up: dose 5 mg/kg, route oral; details: in vivo, read-out: Activity
[5] = AUC (0 to infinity) in Sprague-Dawley rat at 5 mg/kg, po; type: ADME, organism-based; set-up: dose 5 mg/kg, route oral, time infinity; details: plasma
[6] = Clearance in Sprague-Dawley rat at 1 mg/kg, iv; type: ADME, organism-based; set-up: dose 1 mg/kg, route intravenous; details: in vivo
[7] = Oral bioavailability in Sprague-Dawley rat at 5 mg/kg, po; type: ADME, organism-based; details: in vivo
[8] = Lipophilicity, log D of the compound; type: physicochemical; details: octanol/water
[9] = Inhibition of Hepatitis C virus genotype 1a NS3/4A protease activity using (Ac-DE-D(EDANS)-EE-Abu-w-[COO]-AS-K(DABCYL)-NH2 peptide substrate by FRET assay; set-up: species or system Hepatitis C virus subtype 1a

| Structure (SMILES) | EC50 [1] [µM] | EC50 [2] [µM] | IC50 [3] [µM] | Fa [4] [%] | AUC(0-inf) [5] [ng·h/mL] | clearance [6] [mL/min/kg] | bioavailability [7] [%] | logD [8] | IC50 [9] [µM] |
| --- | --- | --- | --- | --- | --- | --- | --- | --- | --- |
| C=C[C@@H]1C[C@]1(NC(=O)[C@@H]1C[C@@H](Oc2ncc(OC)c3ccc(Cl)cc23)CN1C(=O)[C@@H](NC(=O)Oc1ccc2c(c1)B(O)OC2)C(C)(C)C)C(=O)NS(=O)(=O)C1CC1 | 0.17 | 0.023 | 0.0013 | – | – | – | – | – | – |
| C=C[C@@H]1C[C@]1(NC(=O)[C@@H]1C[C@@H](Oc2ncc(OC)c3ccc(Cl)cc23)CN1C(=O)[C@@H](NC(=O)Nc1ccc2c(c1)B(O)OC2)C(C)(C)C)C(=O)NS(=O)(=O)C1CC1 | 0.16 | 0.024 | 0.0022 | 0.92 | 41 | 7.93 | 0.42 | 4.5 | – |
| C=C[C@@H]1C[C@]1(NC(=O)[C@@H]1C[C@@H](Oc2ncc(OC)c3ccc(Cl)cc23)CN1C(=O)[C@@H](NC(=O)c1ccc2c(c1)B(O)OC2)C(C)(C)C)C(=O)NS(=O)(=O)C1CC1 | 0.29 | 0.091 | – | – | – | – | – | – | 0.0046 |
| C=C[C@@H]1C[C@]1(NC(=O)[C@@H]1C[C@@H](Oc2ncc(OC)c3ccc(Cl)cc23)CN1C(=O)[C@@H](NC(=O)NCc1ccc2c(c1)B(O)OC2)C(C)(C)C)C(=O)NS(=O)(=O)C1CC1 | 0.13 | 0.025 | – | – | – | – | – | – | 0.002 |
| C=C[C@@H]1C[C@]1(NC(=O)[C@@H]1C[C@@H](Oc2ncc(OC)c3ccc(Cl)cc23)CN1C(=O)[C@@H](NC(=O)Nc1cccc2c1B(O)OC2)C(C)(C)C)C(=O)NS(=O)(=O)C1CC1 | 0.065 | 0.038 | – | – | – | – | – | – | 0.016 |
| C=C[C@@H]1C[C@]1(NC(=O)[C@@H]1C[C@@H](Oc2ncc(OC)c3ccc(Cl)cc23)CN1C(=O)[C@@H](NC(=O)Nc1cccc2c1COB2O)C(C)(C)C)C(=O)NS(=O)(=O)C1CC1 | 0.5 | 0.081 | – | – | – | – | – | – | 0.004 |
| C=C[C@@H]1C[C@]1(NC(=O)[C@@H]1C[C@@H](Oc2ncc(OC)c3ccc(Cl)cc23)CN1C(=O)[C@@H](NC(=O)Nc1cc2c(cc1F)COB2O)C(C)(C)C)C(=O)NS(=O)(=O)C1CC1 | 0.031 | 0.0043 | 0.0017 | – | – | – | – | – | – |
| C=C[C@@H]1C[C@]1(NC(=O)[C@@H]1C[C@@H](Oc2ncc(OC)c3ccc(Cl)cc23)CN1C(=O)[C@@H](NC(=O)Nc1cc2c(cc1Cl)COB2O)C(C)(C)C)C(=O)NS(=O)(=O)C1CC1 | 0.047 | 0.034 | – | – | – | – | – | – | 0.0013 |
| C=C[C@@H]1C[C@]1(NC(=O)[C@@H]1C[C@@H](Oc2ncc(OC)c3ccc(Cl)cc23)CN1C(=O)[C@@H](NC(=O)Nc1ccc2c(c1)B(O)OC2(C)C)C(C)(C)C)C(=O)NS(=O)(=O)C1CC1 | 0.28 | 0.13 | – | – | – | – | – | – | 0.026 |
| C=C[C@@H]1C[C@]1(NC(=O)[C@@H]1C[C@@H](Oc2ncc(OC)c3ccc(Cl)cc23)CN1C(=O)[C@@H](Nc1ccc2c(c1)B(O)OC2)C(C)(C)C)C(=O)NS(=O)(=O)C1CC1 | 0.11 | 0.034 | – | 4.9 | 75 | 48.8 | 4.3 | 4 | 0.0045 |
| C=C[C@@H]1C[C@]1(NC(=O)[C@@H]1C[C@@H](OC(=O)N2Cc3cccc(F)c3C2)CN1C(=O)[C@@H](NC(=O)Nc1cc2c(cc1F)COB2O)C(C)(C)C)C(=O)NS(=O)(=O)C1CC1 | 0.36 | 0.056 | 0.0011 | – | – | – | – | – | – |
| C=C[C@@H]1C[C@]1(NC(=O)[C@@H]1C[C@@H](Oc2cc(-c3nc(C(C)C)cs3)nc3c(C)c(OC)ccc23)CN1C(=O)[C@@H](NC(=O)Nc1cc2c(cc1F)COB2O)C(C)(C)C)C(=O)NS(=O)(=O)C1CC1 | 0.0081 | 0.0086 | – | – | – | – | – | – | 0.0031 |
| C=C[C@@H]1C[C@]1(NC(=O)[C@@H]1C[C@@H](Oc2ncc(OC)c3ccc(Cl)cc23)CN1C(=O)C(Nc1ccc2c(c1)B(O)OC2)C(C)(C)C)C(=O)NS(=O)(=O)C1CC1 (single isomer, unassigned; diastereomer 2) | – | – | – | – | – | – | – | – | 0.35 |
